Reference: the supplement of paper PMC10307832

Experiments:
Experiment in all cases: relative viability (nuclei count vs DMSO), 5 days (fraction); higher = more cells survive
[1] = compound: COC1=CC=C(C=C1)CN2C=CC3=C2C=C(C=C3)C(=O)NO
Outline: (§1)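 Hoechst staining, done together with fixation and permeabilisation, marked nuclei for 4× imaging and MetaXpress counting. This followed 5 days without medium change after lung cancer cell lines, kept overnight at 37 °C in 1536-well plates, were pinned with five library-drug doses (not always all listed) spaced by √10 on vehicle-anchored plates. Viability is the ratio of treated-well to vehicle-well nuclei, expressed as a median across plates. Plates passed only at control CV below 25% with at least one doubling.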

[2] = compound: C[C@]1(c2nc3c(C(N)=O)cccc3[nH]2)CCCN1 [Veliparib]
Outline: as §1

[3] = compound: COC1=CC=C(C=C1)CN2C=CC3=C2C=C(C=C3)C(=O)NO + CC1(C)CCC(c2ccc(Cl)cc2)=C(CN2CCN(c3ccc(C(=O)NS(=O)(=O)c4ccc(N[C@H](CCN5CCOCC5)CSc5ccccc5)c(S(=O)(=O)C(F)(F)F)c4)cc3)CC2)C1 [Navitoclax] (partner 0.5 µM)
Outline: (§2)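 Lung cancer cell lines were seeded in 1536-well plates and dosed by pin tool the next day, with either a single drug or a fixed anchor-drug dose combined with five library-drug doses (not always all listed) spaced in √10 steps. Five days later, one step fixed the cells and stained their nuclei (final 0.05% Triton X-100, 1% formaldehyde, 1 ug/ml Hoechst), and nuclei were counted on 4× images. Relative viability is the nuclei count in treated wells divided by the count in vehicle wells, and each value is the median of duplicate plates.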

[4] = compound: C[C@]1(c2nc3c(C(N)=O)cccc3[nH]2)CCCN1 [Veliparib] + N=C(N)NC(=N)NCCc1ccccc1 [Phenformin] (partner 250 µM)
Outline: as §2

Cell Line	relative viability ([1]; 0.08 µM)	relative viability ([1]; 0.253 µM)	relative viability ([1]; 0.8 µM)	relative viability ([1]; 2.53 µM)	relative viability ([1]; 8 µM)	relative viability ([2]; 0.02 µM)	relative viability ([2]; 0.06325 µM)	relative viability ([2]; 0.2 µM)	relative viability ([2]; 0.6325 µM)	relative viability ([2]; 2 µM)	relative viability ([3]; first compound 0.08 µM)	relative viability ([3]; first compound 0.253 µM)	relative viability ([3]; first compound 0.8 µM)	relative viability ([3]; first compound 2.53 µM)	relative viability ([3]; first compound 8 µM)	relative viability ([4]; first compound 0.06325 µM)	relative viability ([4]; first compound 0.2 µM)	relative viability ([4]; first compound 0.6325 µM)	relative viability ([4]; first compound 2 µM)	relative viability ([4]; first compound 0.02 µM)
LC-2-ad	0.937	0.977	1.04	0.976	0.963	0.608	0.944	0.977	0.941	0.867	0.421	0.427	0.561	0.527	0.552	0.551	0.631	0.589	0.472	–
COR-L 105	0.679	0.928	0.936	0.799	0.565	0.843	0.794	0.895	0.835	1.08	–	1.15	0.844	0.851	0.551	0.464	0.504	0.492	0.451	0.386
HCC-78	0.803	0.876	1.01	1.02	0.917	0.987	0.829	0.949	0.828	0.888	–	0.718	0.856	0.872	0.709	0.711	0.71	0.758	0.544	0.688
ChaGo-K-1	–	1.04	1.01	1	0.834	0.842	0.978	0.966	0.965	0.775	–	0.932	1.13	0.911	0.887	0.517	0.465	0.471	0.514	0.326
NCI-H441	0.997	1.03	1.18	1.04	0.867	1.09	0.967	0.982	0.772	0.884	0.611	0.708	0.701	0.523	0.595	0.986	0.855	0.72	0.876	0.915
SK-MES-1	1.07	1.02	0.988	1.03	0.997	1.03	0.939	0.977	0.961	1.03	1.2	1.3	1.26	1.2	1.02	0.626	0.628	0.599	0.663	0.707
NCI-H2170	0.973	0.994	0.977	0.98	0.906	0.989	0.954	0.967	0.96	0.991	0.476	0.669	0.715	0.634	0.509	0.41	0.415	0.401	0.459	0.472
A549	0.905	1.01	0.953	0.986	0.895	1	0.957	0.962	0.9	0.989	1.22	1.26	1.25	1.15	1.07	0.209	0.166	0.143	0.185	–
A-427	–	0.98	1.01	0.952	0.806	0.781	0.995	0.943	0.939	0.841	–	1	1.02	1.04	0.806	0.29	0.328	0.391	0.278	–
HARA	–	1.02	1.08	0.89	0.884	0.858	0.939	0.955	0.979	0.915	0.479	1.1	1.13	1.17	1.14	0.399	0.48	0.409	0.474	0.412
NCI-H1944	–	0.986	0.987	0.947	0.955	0.878	0.961	0.765	0.789	0.894	–	0.998	1.02	1.08	1.08	0.188	0.207	0.197	0.204	0.211
HCC-44	0.916	0.923	1.03	1.05	1	0.971	0.798	0.958	1.01	0.94	0.891	0.976	0.872	0.883	0.989	0.144	0.188	0.17	0.135	0.157
NCI-H1915	0.888	0.992	1.02	0.982	0.881	0.949	0.881	0.786	0.9	0.928	0.724	0.778	0.799	0.807	0.781	0.36	0.345	0.36	0.361	0.379
NCI-H1793	–	1	1.02	1.03	1.01	0.881	0.923	0.904	0.865	0.932	0.461	0.672	0.479	0.406	0.424	0.384	0.466	0.329	0.361	0.392
NCI-H596	0.962	1.1	1.08	0.989	0.947	0.932	0.933	0.966	0.93	0.908	0.944	0.906	1.07	0.963	1.04	0.744	0.809	0.725	0.747	0.633
NCI-H1666	0.891	0.99	1.09	1.03	1.03	0.943	0.976	0.981	0.876	0.937	0.85	0.893	0.988	1.26	1.06	0.507	0.544	0.487	0.534	0.546
NCI-H3122	0.971	0.984	0.954	0.989	0.955	1	1.01	0.974	0.957	1	1.01	1	1.02	1.02	1.03	0.345	0.384	0.357	0.387	0.335
